Patent US10829478B2, “5-[3-[piperazin-1-yl]-3-oxo-propyl]-imidazolidine-2,4-dione derivatives as ADAMTS 4 and 5 inhibitors for treating e.g. osteoarthritis” (Galapagos NV, priority 2016, dated 2020)
Where two headings read alike, the source gives them in different places.

How the values were obtained:
human ADAMTS4 = human ADAMTS4 (Homo sapiens (Human), UniProt O75173); experiment: hADAMTS-4 TBIS-1 cleavage assay, Protocol 2; format: biochemical
rnADAMTS-5 (1-564-6H) = rnADAMTS-5 (1-564-6H) (Rattus norvegicus (Rat), UniProt Q6TY19); experiment: Rat ADAMTS-5 TBIS-1 cleavage assay; format: biochemical; conditions: 120 min at 37° C.; read-out: Rat ADAMTS-5 potency IC50
human ADAMTS-5 = human ADAMTS-5 (Homo sapiens (Human), UniProt Q9UNA0); experiment: hADAMTS-5 TBIS-1 cleavage assay, Protocol 3; format: biochemical; conditions: 90 min at 37° C., read-out: hADAMTS-5 potency IC50
Procedure: The reaction is initiated by adding to the assay plate TBIS-1 (10 μL, 4.5 μM, Anaspec) in the same buffer.
Finally, the fluorescence is read on the Envision (Perkin Elmer) after an incubation of 90 min at 37° C. (Excitation 485 nm, emission 530).

human ADAMTS6 = human ADAMTS6 (Homo sapiens (Human), UniProt Q9UKP5); experiment: hADAMTS-6 fluorescent based protease assay (520 MMP FRET substrate XII); format: biochemical; conditions: 37° C. for 2 h; read-out: hADAMTS-6 potency IC50
Summary of the method: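 ADAMTS6 (0.73 nM final) in 25 mM Tris pH 8.0, 0.05% CHAPS, 2.5 mM CaCl2 with compound dilution series (top 20 μM, 1/5 steps). Reaction started with 520 MMP FRET Substrate XII, incubated 2 h at 37 °C. Substrate cleavage read by fluorescence ex485/em530; IC50 determined.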

human MMP13 = human MMP13 (Homo sapiens (Human), UniProt P45452); experiment: hMMP13 assay, Protocol 1 (390 MMP FRET Substrate I, Chemicon enzyme); format: biochemical; conditions: Protocol 1, human MMP13 (Chemicon), read-out: hMMP-13 potency IC50
Procedure: Human MMP13 is preactivated by incubated the enzyme in the same buffer complemented with 1 mM freshly prepared p-Aminophenylmercuric acetate (AMPA) for 1 h at 37° C.

human TACE = human TACE (Homo sapiens (Human), UniProt P78536); experiment: biochemical
Procedure: Finally, the fluorescence is read on the Envision (Perkin Elmer) after an incubation of 75 min at room temperature (Excitation 485 nm, Emission 530).

[1] = Protocol 2, 180 min at 37° C., read-out: ADAMTS4 potency IC50

Chain of human ADAMTS4 (O75173 213-837): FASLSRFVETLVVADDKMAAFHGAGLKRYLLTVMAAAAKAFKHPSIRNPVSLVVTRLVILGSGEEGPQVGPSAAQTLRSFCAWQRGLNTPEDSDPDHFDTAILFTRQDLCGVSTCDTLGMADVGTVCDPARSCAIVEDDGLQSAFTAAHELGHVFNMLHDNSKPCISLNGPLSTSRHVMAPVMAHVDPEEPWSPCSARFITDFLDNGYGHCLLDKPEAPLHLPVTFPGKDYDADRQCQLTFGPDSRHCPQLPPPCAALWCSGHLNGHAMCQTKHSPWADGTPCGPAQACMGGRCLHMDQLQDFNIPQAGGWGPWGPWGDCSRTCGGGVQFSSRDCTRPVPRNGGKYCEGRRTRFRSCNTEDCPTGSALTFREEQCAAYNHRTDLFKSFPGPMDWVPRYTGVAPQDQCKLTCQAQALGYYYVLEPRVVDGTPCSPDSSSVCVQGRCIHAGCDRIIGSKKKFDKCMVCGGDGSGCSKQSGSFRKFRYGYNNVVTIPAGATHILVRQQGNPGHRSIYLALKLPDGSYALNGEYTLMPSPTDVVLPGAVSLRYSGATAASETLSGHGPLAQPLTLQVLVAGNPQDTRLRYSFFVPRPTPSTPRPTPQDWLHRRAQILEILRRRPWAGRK
Chain of rnADAMTS-5 (1-564-6H) (Q6TY19 entry or part of it): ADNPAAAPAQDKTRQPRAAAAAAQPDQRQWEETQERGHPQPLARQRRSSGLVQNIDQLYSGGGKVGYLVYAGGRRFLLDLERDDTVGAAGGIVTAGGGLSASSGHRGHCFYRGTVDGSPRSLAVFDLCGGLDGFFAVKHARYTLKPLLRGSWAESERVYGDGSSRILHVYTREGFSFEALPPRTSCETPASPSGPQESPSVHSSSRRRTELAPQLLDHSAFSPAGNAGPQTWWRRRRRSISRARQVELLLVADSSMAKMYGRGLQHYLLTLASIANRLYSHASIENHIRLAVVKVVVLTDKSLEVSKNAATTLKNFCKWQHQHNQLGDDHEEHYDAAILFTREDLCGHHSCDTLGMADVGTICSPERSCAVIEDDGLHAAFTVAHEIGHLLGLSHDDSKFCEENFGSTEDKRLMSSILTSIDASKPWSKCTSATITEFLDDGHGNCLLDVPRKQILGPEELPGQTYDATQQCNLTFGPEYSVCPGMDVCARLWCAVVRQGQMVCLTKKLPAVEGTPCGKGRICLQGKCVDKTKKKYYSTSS
Chain of human ADAMTS-5 (Q9UNA0 262-930): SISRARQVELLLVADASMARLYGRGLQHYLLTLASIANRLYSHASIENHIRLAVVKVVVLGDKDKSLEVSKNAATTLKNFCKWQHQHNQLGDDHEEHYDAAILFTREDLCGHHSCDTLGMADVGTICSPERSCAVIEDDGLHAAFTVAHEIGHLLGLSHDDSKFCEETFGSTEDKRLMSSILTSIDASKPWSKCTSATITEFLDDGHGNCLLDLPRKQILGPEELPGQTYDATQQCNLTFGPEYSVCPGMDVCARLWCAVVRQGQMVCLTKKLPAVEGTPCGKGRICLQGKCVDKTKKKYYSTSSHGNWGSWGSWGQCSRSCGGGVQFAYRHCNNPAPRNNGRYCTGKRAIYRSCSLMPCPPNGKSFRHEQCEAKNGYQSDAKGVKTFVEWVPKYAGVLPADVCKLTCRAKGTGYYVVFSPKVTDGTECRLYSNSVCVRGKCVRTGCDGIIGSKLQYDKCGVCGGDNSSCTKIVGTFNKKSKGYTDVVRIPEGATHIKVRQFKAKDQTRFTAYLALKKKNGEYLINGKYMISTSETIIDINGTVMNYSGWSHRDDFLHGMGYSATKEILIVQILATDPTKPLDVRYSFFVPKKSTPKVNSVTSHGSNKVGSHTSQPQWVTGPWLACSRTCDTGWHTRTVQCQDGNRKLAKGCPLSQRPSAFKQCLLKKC
Chain of human TACE (P78536 215-671): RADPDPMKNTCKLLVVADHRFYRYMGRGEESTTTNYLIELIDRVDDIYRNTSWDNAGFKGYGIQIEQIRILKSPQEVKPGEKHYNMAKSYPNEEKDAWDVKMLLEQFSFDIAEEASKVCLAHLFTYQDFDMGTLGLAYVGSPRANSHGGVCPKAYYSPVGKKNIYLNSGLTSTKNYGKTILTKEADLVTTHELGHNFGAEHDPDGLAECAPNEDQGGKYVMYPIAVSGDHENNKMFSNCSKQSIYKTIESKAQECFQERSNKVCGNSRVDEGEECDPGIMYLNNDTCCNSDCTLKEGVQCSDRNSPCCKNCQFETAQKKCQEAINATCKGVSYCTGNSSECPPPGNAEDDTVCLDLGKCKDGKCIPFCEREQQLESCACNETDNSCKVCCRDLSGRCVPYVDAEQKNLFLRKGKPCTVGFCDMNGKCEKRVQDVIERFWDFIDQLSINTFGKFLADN
Chain of human ADAMTS6 (Q9UKP5 other isoform, or with tags, fused parts or gaps): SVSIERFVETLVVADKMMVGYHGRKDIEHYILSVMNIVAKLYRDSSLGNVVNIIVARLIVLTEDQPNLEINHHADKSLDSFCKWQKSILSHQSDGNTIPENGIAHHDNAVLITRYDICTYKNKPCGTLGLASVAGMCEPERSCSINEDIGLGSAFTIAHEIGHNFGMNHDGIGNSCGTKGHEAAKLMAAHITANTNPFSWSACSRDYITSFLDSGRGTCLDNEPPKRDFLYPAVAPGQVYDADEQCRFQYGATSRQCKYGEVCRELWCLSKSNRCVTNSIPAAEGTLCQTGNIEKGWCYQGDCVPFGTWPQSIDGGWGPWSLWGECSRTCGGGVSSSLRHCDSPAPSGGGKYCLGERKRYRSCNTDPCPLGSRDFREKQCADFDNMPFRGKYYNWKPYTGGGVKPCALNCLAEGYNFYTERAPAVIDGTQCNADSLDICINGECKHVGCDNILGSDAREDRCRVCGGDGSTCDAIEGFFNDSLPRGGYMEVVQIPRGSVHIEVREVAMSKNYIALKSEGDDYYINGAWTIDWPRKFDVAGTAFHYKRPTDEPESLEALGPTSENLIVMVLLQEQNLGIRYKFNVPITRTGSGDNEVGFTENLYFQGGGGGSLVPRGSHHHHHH

SMILES	IC50 (human ADAMTS4; [1]) [nM]	IC50 (rnADAMTS-5 (1-564-6H)) [nM]	IC50 (human ADAMTS-5) [nM]	IC50 (human ADAMTS6) [nM]	IC50 (human MMP13) [nM]	IC50 (human TACE) [nM]	IC50 (human ADAMTS4) [nM]
COc1cc(N2CCN(C(=O)CC[C@H]3NC(=O)NC3=O)C[C@@H]2C)cc(F)c1F [Cpd 129, (5R)-5-[3-[(3S)-4-(3,4-difluoro-5-methoxy-phenyl)-3-methyl-piperazin-1-yl]-3-oxo-propyl]imidazolidine-2,4-dione]	> 100	> 100	> 100	0.001 to 25	> 100	> 100	–
COc1cc(N2CCN(C(=O)CC[C@H]3NC(=O)NC3=O)C[C@@H]2C)cc(F)c1Cl [Cpd 144, (5R)-5-[3-[(3 S)-4-(4-chloro-3-fluoro-5-methoxy-phenyl)-3-methyl-piperazin-1-yl]-3-oxo-propyl]imidazolidine-2,4-dione]	> 100	50 to 100	50 to 100	0.001 to 25	> 100	> 100	–
COc1cc(N2CCN(C(=O)CC[C@H]3NC(=O)NC3=O)CC2)c(C)cc1Cl [Cpd 138, (5R)-5-[3-[4-(4-chloro-5-methoxy-2-methyl-phenyl)piperazin-1-yl]-3-oxo-propyl]imidazolidine-2,4-dione]	> 100	> 100	> 100	> 100	> 100	> 100	–
COc1cc(N2CCN(C(=O)CC[C@H]3NC(=O)NC3=O)C[C@@H]2C)cc(OC)c1Cl [Cpd 139, (5R)-5-[3-[(3 S)-4-(4-chloro-3,5-dimethoxy-phenyl)-3-methyl-piperazin-1-yl]-3-oxo-propyl]imidazolidine-2,4-dione]	> 100	50 to 100	> 100	0.001 to 25	> 100	> 100	–
COc1cc(N2CCN(C(=O)CCC3(C)NC(=O)NC3=O)C[C@@H]2C)cc(F)c1Cl (stereo partly drawn) [Cpd 39, 5-[3-[(3S)-4-(4-chloro-3-fluoro-5-methoxy-phenyl)-3-methyl-piperazin-1-yl]-3-oxo-propyl]-5-methyl-imidazolidine-2,4-dione]	> 100	50 to 100	50 to 100	0.001 to 25	> 100	> 100	–
COc1cc(N2CCN(C(=O)CCC3(C)NC(=O)NC3=O)C[C@@H]2C)c(C)cc1Cl (stereo partly drawn) [Cpd 36, 5-[3-[(3 S)-4-(4-chloro-5-methoxy-2-methyl-phenyl)-3-methyl-piperazin-1-yl]-3-oxo-propyl]-5-methyl-imidazolidine-2,4-dione]	> 100	> 100	> 100	25 to 50	> 100	> 100	–
COc1cc(N2CCN(C(=O)CCC3(C4CC4)NC(=O)NC3=O)C[C@@H]2C)cc(F)c1F (stereo partly drawn) [Cpd 21, 5-cyclopropyl-5-[3-[(3S)-4-(3,4-difluoro-5-methoxy-phenyl)-3-methyl-piperazin-1-yl]-3-oxo-propyl]imidazolidine-2,4-dione]	–	0.001 to 25	0.001 to 25	0.001 to 25	> 100	> 100	50 to 100
COc1cc(OC)cc(N2CCN(C(=O)CC[C@H]3NC(=O)NC3=O)C[C@@H]2C)c1 [Cpd 132, (5R)-5-[3-[(3 S)-4-(3,5-dimethoxyphenyl)-3-methyl-piperazin-1-yl]-3-oxo-propyl]imidazolidine-2,4-dione]	> 100	> 100	> 100	25 to 50	> 100	> 100	–
COc1cc(N2CCN(C(=O)CCC3(C)NC(=O)NC3=O)CC2)cc(F)c1Cl (stereo not drawn) [Cpd 38, 5-[3-[4-(4-chloro-3-fluoro-5-methoxy-phenyl)piperazin-1-yl]-3-oxo-propyl]-5-methyl-imidazolidine-2,4-dione]	> 100	50 to 100	> 100	0.001 to 25	> 100	> 100	–
COc1cc(F)cc(N2CCN(C(=O)[C@@H](C)C[C@@]3(C)NC(=O)NC3=O)CC2)c1 [Cpd 27, (5R)-5-[(2S)-3-[4-(3-fluoro-5-methoxy-phenyl)piperazin-1-yl]-2-methyl-3-oxo-propyl]-5-methyl-imidazolidine-2,4-dione]	–	25 to 50	25 to 50	0.001 to 25	> 100	> 100	25 to 50
COc1cc(N2CCN(C(=O)CC[C@H]3NC(=O)NC3=O)CC2)cc(OC)c1Cl [Cpd 135, (5R)-5-[3-[4-(4-chloro-3,5-dimethoxy-phenyl)piperazin-1-yl]-3-oxo-propyl]imidazolidine-2,4-dione]	> 100	> 100	> 100	0.001 to 25	> 100	> 100	–
